Source: US20060269950A1, “Method of identifying compounds that modulate interaction of androgen receptor with beta-catenin” (Wyeth, priority 2005, published 2006)

What was measured:
[1] = molecular target: T1, progesterone receptor (PR) interaction with β-catenin (Homo sapiens, UniProt P06401); assay: One-hybrid GAL4-β-catenin luciferase reporter assay in CV-1 cells with PR expression plasmid; type: cell-based; details: 10 nM, 18 hours
T1 construct: expressed in transfected cells; host or cells: CV-1 cells
T1 sequence (P06401 1-933): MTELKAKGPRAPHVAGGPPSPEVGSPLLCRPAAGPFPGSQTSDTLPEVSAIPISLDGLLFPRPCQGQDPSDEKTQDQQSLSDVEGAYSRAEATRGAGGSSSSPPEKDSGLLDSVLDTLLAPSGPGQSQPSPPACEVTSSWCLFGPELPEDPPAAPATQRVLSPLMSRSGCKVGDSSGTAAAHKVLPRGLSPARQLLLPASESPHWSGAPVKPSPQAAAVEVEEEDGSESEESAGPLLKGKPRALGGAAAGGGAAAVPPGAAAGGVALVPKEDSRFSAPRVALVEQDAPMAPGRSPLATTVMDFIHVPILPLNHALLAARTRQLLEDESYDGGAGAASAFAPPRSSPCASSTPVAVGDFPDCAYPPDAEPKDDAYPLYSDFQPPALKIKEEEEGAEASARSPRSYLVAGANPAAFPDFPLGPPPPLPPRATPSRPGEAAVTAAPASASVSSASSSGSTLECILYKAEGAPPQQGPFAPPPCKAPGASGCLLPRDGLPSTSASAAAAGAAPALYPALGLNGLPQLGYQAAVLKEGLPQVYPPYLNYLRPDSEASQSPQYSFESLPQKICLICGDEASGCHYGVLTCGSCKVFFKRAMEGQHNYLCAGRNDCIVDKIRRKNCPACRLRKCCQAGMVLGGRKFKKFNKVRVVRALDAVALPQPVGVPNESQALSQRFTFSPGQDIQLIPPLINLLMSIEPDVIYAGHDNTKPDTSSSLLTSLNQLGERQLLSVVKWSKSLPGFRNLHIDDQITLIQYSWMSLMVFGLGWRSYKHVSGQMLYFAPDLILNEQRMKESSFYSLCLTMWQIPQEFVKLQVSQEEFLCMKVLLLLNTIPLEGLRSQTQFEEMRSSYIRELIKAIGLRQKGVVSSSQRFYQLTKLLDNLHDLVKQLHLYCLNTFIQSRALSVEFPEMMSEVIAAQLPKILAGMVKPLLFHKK
Method: (§1) CV-1 cells were cultured on 96 well plates and transfected after 24 hours with the expression and reporter plasmids using the lipofectamine procedure (Invitrogen). In this procedure, the three different plasmid constructs used were mixed in cell culture media and lipofectamine and incubated for 15 minutes according to the manufacturer's instructions (Invitrogen). The plasmid-lipofectamine mixture was diluted in culture medium, added to cells, and incubated for 4 hours. The cells were rinsed and then treated with culture media. Twenty-four hours after transfection, the cells were treated with androgen agonists and antagonists or vehicle. After 18 hours, cell lysates were harvested and assayed for luciferase activity using luciferase reagent (Promega) and a luminometer (Wallac). Other known transfection techniques can be used including, for example, calcium phosphate precipitation transfection technique.
(§2) CV-1 cells were transfected with the 5XGAL4-luciferase reporter and the GAL4-O-catenin expression plasmid in the absence of a nuclear receptor expression vector (−), with the AR, PR, or ER expression plasmid. […] Cell lysates were harvested and analyzed for luciferase activity.

[2] = system: estrogen receptor (ER) interaction with β-catenin; assay: One-hybrid GAL4-β-catenin luciferase reporter assay in CV-1 cells with ER expression plasmid; type: cell-based; details: 10 nM, 18 hours
Method: as §1, §2

[3] = molecular target: T2, interaction between AR and β-catenin (Homo sapiens, UniProt P10275); assay: One-hybrid GAL4-β-catenin/AR luciferase reporter assay in CV-1 cells; type: cell-based, African green monkey; details: AR expressing CV-1 cells, 10 nM, 18 hours
T2 construct: The AR expression vector is human full length AR cDNA in pcDNA3; expressed in transfected cells; host or cells: CV-1 cells
T2 sequence (P10275 1-920): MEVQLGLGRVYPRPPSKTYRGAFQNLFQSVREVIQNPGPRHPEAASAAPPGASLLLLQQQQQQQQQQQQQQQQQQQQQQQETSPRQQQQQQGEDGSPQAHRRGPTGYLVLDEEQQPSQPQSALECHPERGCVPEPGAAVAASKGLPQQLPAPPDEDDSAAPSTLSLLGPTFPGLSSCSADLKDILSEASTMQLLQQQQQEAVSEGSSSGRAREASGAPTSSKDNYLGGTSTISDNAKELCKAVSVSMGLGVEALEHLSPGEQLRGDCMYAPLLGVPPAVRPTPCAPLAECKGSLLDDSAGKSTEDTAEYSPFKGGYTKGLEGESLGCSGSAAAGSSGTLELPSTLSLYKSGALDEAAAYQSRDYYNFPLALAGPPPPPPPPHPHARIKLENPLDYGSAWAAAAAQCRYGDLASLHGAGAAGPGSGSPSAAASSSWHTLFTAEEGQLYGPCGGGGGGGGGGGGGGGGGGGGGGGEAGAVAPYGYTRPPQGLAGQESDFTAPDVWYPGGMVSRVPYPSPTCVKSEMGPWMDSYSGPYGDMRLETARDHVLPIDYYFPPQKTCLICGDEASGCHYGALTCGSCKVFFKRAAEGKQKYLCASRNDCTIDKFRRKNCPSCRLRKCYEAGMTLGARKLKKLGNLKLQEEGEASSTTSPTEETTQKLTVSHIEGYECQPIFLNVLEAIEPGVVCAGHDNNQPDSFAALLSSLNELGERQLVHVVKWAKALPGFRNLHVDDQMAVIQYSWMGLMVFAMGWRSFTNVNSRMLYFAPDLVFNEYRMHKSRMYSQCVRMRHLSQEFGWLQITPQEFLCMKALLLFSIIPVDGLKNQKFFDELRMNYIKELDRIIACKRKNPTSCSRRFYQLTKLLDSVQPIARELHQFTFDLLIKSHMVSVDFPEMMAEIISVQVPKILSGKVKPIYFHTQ
Method: as §1
(§3) Cell lysates were harvested and analyzed for luciferase activity.
as §2, §3

[4] = molecular target: T3, interaction between AR and β-catenin (Mus musculus, UniProt P19091); assay: Co-immunoprecipitation of β-catenin followed by Western analysis for AR in L929 cells; details: 300 nM (30-fold excess) in presence of 10 nM DHT, 17 hours
T3 sequence (P19091 1-899): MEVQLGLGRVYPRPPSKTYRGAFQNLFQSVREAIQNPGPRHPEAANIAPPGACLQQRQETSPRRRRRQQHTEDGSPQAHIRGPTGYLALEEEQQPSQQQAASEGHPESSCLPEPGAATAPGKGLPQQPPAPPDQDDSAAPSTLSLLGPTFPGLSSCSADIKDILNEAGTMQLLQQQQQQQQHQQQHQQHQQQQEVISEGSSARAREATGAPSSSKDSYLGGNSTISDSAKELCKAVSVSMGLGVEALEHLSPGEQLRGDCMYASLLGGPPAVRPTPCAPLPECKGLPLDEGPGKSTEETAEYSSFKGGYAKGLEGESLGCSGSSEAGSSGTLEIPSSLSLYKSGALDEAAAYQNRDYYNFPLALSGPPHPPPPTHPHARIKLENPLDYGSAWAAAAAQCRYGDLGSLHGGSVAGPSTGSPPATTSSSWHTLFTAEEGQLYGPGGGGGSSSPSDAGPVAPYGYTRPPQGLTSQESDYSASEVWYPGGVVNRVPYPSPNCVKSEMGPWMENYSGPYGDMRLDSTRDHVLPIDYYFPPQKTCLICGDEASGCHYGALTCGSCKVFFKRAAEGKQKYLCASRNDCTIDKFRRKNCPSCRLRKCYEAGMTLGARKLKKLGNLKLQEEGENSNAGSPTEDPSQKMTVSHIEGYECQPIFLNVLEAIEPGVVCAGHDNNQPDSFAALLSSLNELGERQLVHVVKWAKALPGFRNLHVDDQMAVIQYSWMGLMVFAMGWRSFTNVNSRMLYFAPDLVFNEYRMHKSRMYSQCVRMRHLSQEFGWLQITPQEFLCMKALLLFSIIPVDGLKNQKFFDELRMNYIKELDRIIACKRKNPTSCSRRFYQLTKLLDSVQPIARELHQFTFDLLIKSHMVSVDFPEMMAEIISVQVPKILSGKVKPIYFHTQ
Method: Cell lysates were harvested, precleared with protein A/G sepharose, and β-catenin was immunoprecipitated using a goat polyclonal IgG against β-catenin conjugated to agarose (Santa Cruz Biotechnology). The immunoprecipitates were analyzed by polyacrylamide gel electrophoresis followed by Western analysis for AR and β-catenin (β-cat) as indicated using antibodies from Santa Cruz (FIG. 2).

SMILES | activity in the one-hybrid assay (reporter activity) [1] | activity in the one-hybrid assay (reporter activity) [2] | reporter (luciferase) activity [3] | effect on DHT-stimulated AR/β-catenin protein-protein interaction [4]
C[C@]12CC[C@@H]3c4ccc(O)cc4CC[C@H]3[C@@H]1CC[C@@H]2O [17β-estradiol] | no activity | no activity |  | 
C[C@H](O)C(=O)[C@@]1(C)CC[C@H]2[C@@H]3CCC4=CC(=O)CCC4=C3CC[C@@]21C [trimegestone] | no activity | no activity | not | 
CC(C)(O)C(=O)Nc1ccc([N+](=O)[O-])c(C(F)(F)F)c1 [hydroxyflutamide] |  |  |  | attenuated
C[C@]12CCC(=O)C[C@@H]1CC[C@@H]1[C@@H]2CC[C@]2(C)[C@@H](O)CC[C@@H]12 [DHT, dihydrotestosterone] | no activity | no activity |  | 
